Broadly, the IC50 is the concentration at which inhibition is half-maximal.

The results in this text go back to patent US20200230100A1, “AGONIST OF 67 KDA LAMININ RECEPTOR AND UTILIZATION THEREOF” (priority 2017, published 2020).

Assay [1] deals with U266. Put plainly: Anti-cancer activity enhancing action by flavanone (ATPlite cell viability). Format: cell-based, human. As to conditions: U266, flavanone 5 μM with OHBFB 2.5 μM, 96 hours. Here is the method:
Specifically, U266 which is a human multiple myeloma cell line was suspended in an RPMI 1640 medium supplemented with 1% FCS, SOD (5 U/mL), and a catalase (200 U/mL) to 5×10^4 cells/mL, and the suspension was seeded at 100 μL per well in a 96-well plate. […] As a control, a sample to which the same volume of PBS had been added instead of flavanone was used. As the flavanone, eriodictyol (manufactured by Extrasynthese Corp.), naringenin (manufactured by Tokyo Chemical Industry Co., Ltd.), and hesperetin (manufactured by Wako Pure Chemical Industries, Ltd.) were used. Subsequently, the cell viability was measured using a commercially available kit (trade name “ATPlite,” PerkinElmer).
On the technique in general: ATP-based viability assays read luminescence as a measure of living cells.

In assay [2] the test system is U266. Nature of the assay: Anti-cancer activity enhancing action by eriodictyol (ATPlite cell viability, isobologram analysis). Format: cell-based, human.
The test system of a further assay is Kasumi-1. Put plainly: Anti-cancer action: number of viable cells (ATPlite) after 96 hours of culture. The following applies: Kasumi-1 human acute myeloid leukemia cell line. Format: cell-based.
For the next assay, the system named is ARH77. The description is as above. The assay is classed as cell-based. As to conditions: ARH77 human multiple myeloma cell line. The procedure: (§1) Specifically, OHBFB was added to a medium of various cancer cell lines and the number of viable cells was measured. For comparison, the anti-cancer action of epigallocatechin gallate (hereinafter sometimes referred to as “EGCG”) was also studied similarly.
(§2) Examples of the cancer cell lines include U266 which is a human multiple myeloma cell line, ARH77 which is a human multiple myeloma cell line, RPMI8226 which is a human multiple myeloma cell line, Mec-1 which is a human chronic lymphocytic leukemia cell line, HL60 which is a human acute myeloid leukemia cell line, Kasumi-1 which is a human acute myeloid leukemia cell line, and KU812 which is human chronic myeloid leukemia cell line were used.
(§3) As each of the cancer cell lines, a cell line obtained by subculturing the cells under the conditions of 37° C. and 5% CO2 saturated with water vapor using an RPMI 1640 medium supplemented with a 10% fetal calf serum (FCS), and culturing and maintaining the cells in a logarithmic growth phase.
(§4) EGCG (manufactured by Sigma-Aldrich) was dissolved in ultrapure water to 5 mM, stored at −30° C., and appropriately thawed before use. OHBFB (manufactured by Nagara Bioscience) was dissolved in ultrapure water to 5 mM, stored at −30° C., and appropriately thawed before use.
(§5) Each of the cancer cell lines was suspended in an RPMI 1640 medium supplemented with a 1% FCS, superoxide dismutase (SOD) (5 U/mL), and a catalase (200 U/mL) to 5×10^4 cells/mL, the suspension was seeded at 100 μL/well in a 96-well plate, OHBFB or EGCG at a final concentration of 0, 5, 10, or 25 μM was added thereto, and the cells were cultured for 96 hours. Thereafter, the number of viable cells was measured using a commercially available kit (trade name “ATPlite,” PerkinElmer).

A further assay deals with RPMI8226. Described as above. Format: cell-based. The following applies: RPMI8226 human multiple myeloma cell line. Here is the method:
as §1, §2, §3, §4, §5

The test system of a further assay is KU812. The assay is described as above. The assay is classed as cell-based. The following applies: KU812 human chronic myeloid leukemia cell line. The procedure: as §1, §2, §3, §4, §5
The next assay deals with Mec-1. The assay is described as above. Format: cell-based. As to conditions: Mec-1 human chronic lymphocytic leukemia cell line. Here is the method:
as §1, §2, §3, §4, §5

Assay [3] has as its system U266. The assay is described as above. The assay is classed as cell-based. The following applies: U266 human multiple myeloma cell line. Here is the method:
as §1, §2, §3, §4, §5

A further assay deals with HL60. The description is as above. Format: cell-based. As to conditions: HL60 human acute myeloid leukemia cell line.
The test system of assay [4] is U266. Put plainly: Anti-cancer activity enhancing action by PDE5 inhibitor vardenafil (ATPlite cell viability, isobologram analysis). Format: cell-based. The following applies: Homo sapiens, U-266, 96 h, read-out: IC50 of vardenafil alone.
Experimental: Specifically, a human multiple myeloma cell line U266 was suspended in an RPMI 1640 medium supplemented with 1% FCS, SOD (5 U/mL), and a catalase (200 U/mL) to 5×10^4 cells/mL, and the suspension was seeded at 100 μL per well in a 96-well plate.
Subsequently, vardenafil (manufactured by Cayman Chemical Co.) which is a PDE5 inhibitor was added to a final concentration of 5 μM and the mixture was incubated for 3 hours. […] Thereafter, the cell viability was measured using a commercially available kit (trade name “ATPlite,” PerkinElmer).
In addition, the same studies as described above were performed in the presence of vardenafil alone at final concentrations of 0, 5, 10, 25, 50, and 100 μM.

Turning to `COc1ccc([C@@H]2CC(=O)c3c(O)cc(O)cc3O2)cc1O` [hesperetin], in the assay with U266 [1], the “cell viability: enhancement of OHBFB anti-cancer activity by flavanone” value (from here on “cell viability: enhancement”) was “enhance the anti-cancer activity of OHBFB”.

Turning to `O=C1C[C@@H](c2ccc(O)c(O)c2)Oc2cc(O)cc(O)c21` [eriodictyol], the IC50 in the assay on U266 [2] (Homo sapiens, U-266, 96 h, read-out: IC50 of eriodictyol alone) turned out to be 89.4 µM. In addition, the “combined use of OHBFB and eriodictyol (isobologram analysis)” value in the assay with U266 [2] (U266, isobologram) is “synergistically enhances the anti-cancer activity of OHBFB”. Further, the “cell viability: enhancement” value in the assay on U266 [1] is recorded as “enhance the anti-cancer activity of OHBFB”.

As to `O=C(O[C@@H]1Cc2c(O)cc(O)cc2O[C@@H]1c1cc(O)c(O)c(O)c1)c1cc(O)c(O)c(O)c1` [EGCG, epigallocatechin gallate], the IC50 is 9.6 µM in the assay on Kasumi-1; 4 µM with ARH77; 11.1 µM in the assay on RPMI8226; 6.2 µM in the assay with KU812; 8.3 µM in the assay with Mec-1; 11.8 µM in the assay with U266 [3]. Also, the IC50 in the assay with HL60 stood at 9.5 µM.

Take `O=C1C[C@@H](c2ccc(O)cc2)Oc2cc(O)cc(O)c21` [naringenin]: in the assay on U266 [1], the “cell viability: enhancement” value was “enhance the anti-cancer activity of OHBFB”.

With `CCCc1nc(C)c2c(=O)[nH]c(-c3cc(S(=O)(=O)N4CCN(CC)CC4)ccc3OCC)nn12` [vardenafil], the IC50 with U266 [4] stood at 92.7 µM.
